Measured values: patent US20260306506A1, “PYRIDO[4,3-D]PYRIMIDINE COMPOUNDS” (Pfizer Inc., priority 2023, published 2026)

Legend:
[1] = system: H358 (non-small cell lung cancer cell line); assay: KRAS Cell Titer Glo (CTG) viability assay, H358; assay type: cell-based; details: H358, 7-day, geometric mean when n>1
Excerpt: (§1) The CellTiter-Glo® (CTG) Luminescent Cell Viability Assay is a homogeneous method of determining the number of viable cells in culture based on quantitation of the ATP present, an indicator of metabolically active cells. The CTG is designed for use with multi-well formats, making it ideal for automated high-throughput screening (HTS), cell proliferation and cytotoxicity assays. The homogeneous assay procedure involves adding the single reagent (CellTiter-Glo® Reagent) directly to cells cultured in serum-supplemented medium. Cell washing, removal of medium and multiple pipetting steps are not required. The system detects as few as 15 cells per well in a 384-well format in 10 minutes after adding reagent and mixing.
(§2) Cells are grown in humidified 5% CO2 incubator at 37° C. using the culture conditions outlined below. All cell culture media reagents were purchased from Gibco. Cell lines purchased from ATCC: H358 (non-small cell lung cancer cell line), SW620 (colorectal cancer cell line), PANC08.13 (RPM11640+10% FBS+10 units/ml Insulin, pancreatic cancer cell line). Test and control compounds are dispensed as nanoliter drops according to desired final concentrations in 0.1% DMSO using Echo Acoustic Dispenser onto 384 assay plates (Corning, Cat #3764) prior to cell seeding. Cells were seeded in 40 μL volume per well at the following cell densities (cells per well): H358 (300), SW620 (750), PANC 08.13 (600). Cells are incubated in the presence of compound for 7-days. Viability is determined on Day 7 using CellTiter-Glo® (CTG) Luminescent Cell Viability Assay (Promega). CTG is added to a final volume of 20 μl per well and incubated at room temperature for 15 minutes before luminescence is captured using an EnVision Reader with LUM384 US protocol. Data is analyzed using Activity Base to determine compound response and will be represented either as a percent effect (PCTEFF) or percent control (PCTOCTL) as described: Zero percent effect control (ZPE) (Negative control)—100% DMSO. Hundred percent effect (HPE) (Positive control)—1 μM Trametinib (GSK1120212, MEK inhibitor) (4 nl of 10 mM and 36 nl of DMSO per well). The following equations/nomenclature are used (% Effect; PCTEFF) and (% of Control; PCTOCTL): PCTEFF: 100*(Raw_Data_Value−HPE/ZPE−HPE), PCTOCTL: 100*Raw_Data_Value/User_Defined_Array), where the User_Defined_Array is either summarized HPE or ZPE.

[2] = system: SW620 (colorectal cancer cell line); assay: KRAS Cell Titer Glo (CTG) viability assay, SW620; assay type: cell-based; details: SW620, 7-day, geometric mean when n>1
Excerpt: as §1, §2

[3] = system: PANC08.13 (pancreatic cancer cell line); assay: KRAS Cell Titer Glo (CTG) viability assay, Panc08.13; assay type: cell-based; details: Panc08.13, 7-day, geometric mean when n>1
Excerpt: as §1, §2

[4] = molecular target: T1, G12D GTPγS KRAS (aa1-185) (Homo sapiens, UniProt P01116, G12D); assay: SPR binding (Biacore), GTPγS-loaded KRAS G12D; details: for Kd: 10° C., geometric mean when n>1, read-out: KRasGTPgS G12D SPR KD; for KRasGTPgS G12D SPR t1/2: dissociative half-life, t1/2=0.693/koff
T1 construct: G12DGDP KRAS (aa1-185); made in house
Excerpt: (§3) No additional regeneration was used.
(§4) Compound dissociation was monitored for at least 3600 seconds. […] No additional regeneration was used.

[5] = molecular target: T2, G12C GTPγS KRAS (aa2-184) (Homo sapiens, UniProt P01116, G12C); assay: SPR binding (Biacore), GTPγS-loaded KRAS G12C; details: for Kd: 10° C., geometric mean when n>1, read-out: KRasGTPgS G12C SPR KD; for KRasGTPgS G12C SPR t1/2: dissociative half-life, t1/2=0.693/koff
T2 construct: G12CGDP KRAS (aa2-184); made in house
Excerpt: as §3, §4

[6] = molecular target: T3, G12V GTPγS KRAS (aa2-184) (Homo sapiens, UniProt P01116, G12V); assay: SPR binding (Biacore), GTPγS-loaded KRAS G12V; details: for Kd: 10° C., geometric mean when n>1, read-out: KRasGTPgS G12V SPR KD; for KRasGTPgS G12V SPR t1/2: dissociative half-life, t1/2=0.693/koff
T3 construct: G12VGDP KRAS (aa2-184); made in house
Excerpt: as §3, §4

[7] = molecular target: T4, WT GTPγS KRAS (aa1-185) (Homo sapiens, UniProt P01116); assay: SPR binding (Biacore), GTPγS-loaded WT KRAS; details: for Kd: 10° C., geometric mean when n>1, read-out: KRasGTPgS SPR KD; for KRasGTPgS SPR t1/2: dissociative half-life, t1/2=0.693/koff
T4 construct: wild-type (WT) KRASGDP (aa1-185); made in house
Excerpt: as §3, §4

[8] = molecular target: G12V GDP KRAS (aa2-184) (Homo sapiens, UniProt P01116, G12V); assay: biochemical
Procedure: (§5) The binding affinity and kinetics were measured by Surface Plasmon Resonance (SPR) using Biacore 8K or 8K+ (Cytiva, Marlborough, MA) instruments. Recombinant, C-terminal site-specific biotinylated, wild-type (WT) KRASGDP (aa1-185), G12DGDP KRAS (aa1-185), G12CGDP KRAS (aa2-184), G12VGDP KRAS (aa2-184), WT HRASGDP (aa2-184) and WT NRASGDP (aa2-185) proteins were purified in presence of 1 μM GDP. The GDP-loaded KRAS proteins then went through nucleotide exchange with GTPγS (a non-hydrolysable analog of GTP) in the presence of alkaline phosphatase beads to obtain WTGTPγS KRAS (aa1-185), G12DGTPγS KRAS (aa1-185), G12CGTPγS KRAS (aa2-184), G12VGTPγS KRAS (aa2-184), WT HRASGTPγS (aa2-184) and WT NRASGTPγS (aa2-185). Binding measurements were performed parallelly in sets of either WT/G12D/G12C/G12V KRAS or WT K/H/N RAS proteins in GDP- and/or GTPγS-loaded forms, respectively.
(§6) Biacore instrument was desorbed and docked with a Series S Sensor Chip SA. […] Compound binding kinetics were measured in either multi-cycle or single-cycle kinetic format.
(§7) A 2-fold, 10-point serial dilution of test compounds was set-up in a 96-well microplate (Greiner; Cat #650101) with a top concentration of either 10 μM or 100 μM. Binding kinetics was measured at 10° C. by injecting serial dilution of compounds onto both reference and RAS immobilized channels at a flow rate of 100 μL/min and association time of 90 seconds. Compound dissociation was monitored for at least 400 seconds during each cycle. […]
(§8) A 3-fold, 6-point serial dilution of compounds was set-up in a deep 96-well microplate (Greiner Bio; Cat #780201) with the highest concentration of 1 μM (concentration range: 0.004-1 μM). Binding kinetics was measured at 10° C. by injecting serial dilutions of compounds in increasing order onto reference as well as RAS immobilized channels at a flow rate of 100 μL/min and association time of 120 seconds. Compound dissociation was monitored for at least 3600 seconds. […]
(§9) Both MCK and SCK data were processed and analyzed using Biacore Insight evaluation software (Cytiva, Marlborough, MA)). […]

[9] = molecular target: G12D GDP KRAS (aa1-185) (Homo sapiens, UniProt P01116, G12D); assay: biochemical
Procedure: as §5, §6, §7, §8, §9

[10] = molecular target: G12C GDP KRAS (aa2-184) (Homo sapiens, UniProt P01116, G12C); assay: biochemical
Procedure: as §5, §6, §7, §8, §9

[11] = molecular target: T5, wild-type (WT) KRAS GDP (aa1-185) (Homo sapiens, UniProt P01116); assay: SPR binding (Biacore), GDP-loaded WT KRAS; details: 10° C., geometric mean when n>1
T5 construct: wild-type (WT) KRASGDP (aa1-185); made in house
Excerpt: as §3, §4

[12] = Homo sapiens, PANC-08-13, 168 h

| Compound | IC50 ([1]; Homo sapiens, NCI-H358, 168 h) | IC50 ([2]; Homo sapiens, SW-620, 168 h) | IC50 [3, 12] | further results |
| --- | --- | --- | --- | --- |
| C#Cc1cccc2cc(O)cc(-c3ncc4c(N5C[C@@H]6C[C@H](C5)[C@H](O)C6)nc(OC[C@@]56CCCN5C[C@H](F)C6)nc4c3F)c12 [Example 9, (1R,5R,6R)-3-[7-(8-ethynyl-3-hydroxynaphthalen-1-yl)-8-fluoro-2-{[(2R,7aS)-2-fluorotetrahydro-1H-pyrrolizin-7a(5H)-yl]methoxy}pyrido[4,3-d]pyrimidin-4-yl]-3-azabicyclo[3.2.1]octan-6-ol] | 112 nM | 166 nM | 12.3 nM |  |
| C#Cc1c(F)ccc2cc(O)cc(-c3ncc4c(N5C[C@@H]6C[C@H](C5)[C@H](O)C6)nc(OC[C@@]56CCCN5C[C@H](F)C6)nc4c3F)c12 [Example 10, (1R,5R,6R)-3-[7-(8-ethynyl-7-fluoro-3-hydroxynaphthalen-1-yl)-8-fluoro-2-{[(2R,7aS)-2-fluorotetrahydro-1H-pyrrolizin-7a(5H)-yl]methoxy}pyrido[4,3-d]pyrimidin-4-yl]-3-azabicyclo[3.2.1]octan-6-ol] | 26.9 nM | 35.7 nM | 8.15 nM |  |
| N#CC[C@@H]1CCCN(c2nc(OC[C@@]34CCCN3C[C@H](F)C4)nc3c(F)c(-c4cc(O)cc5ccc(F)c(F)c45)ncc23)C1 [Example 12, {(3S)-1-[7-(7,8-difluoro-3-hydroxynaphthalen-1-yl)-8-fluoro-2-{[(2R,7aS)-2-fluorotetrahydro-1H-pyrrolizin-7a(5H)-yl]methoxy}pyrido[4,3-d]pyrimidin-4-yl]piperidin-3-yl}acetonitrile] | 115 nM | 136 nM | 19.8 nM |  |
| Oc1cc(-c2ncc3c(N4C[C@@H]5C[C@H](C4)[C@H](O)C5)nc(OC[C@@]45CCCN4C[C@H](F)C5)nc3c2F)c2c(F)c(F)ccc2c1 [Example 14, (1R,5R,6R)-3-[7-(7,8-difluoro-3-hydroxynaphthalen-1-yl)-8-fluoro-2-{[(2R,7aS)-2-fluorotetrahydro-1H-pyrrolizin-7a(5H)-yl]methoxy}pyrido[4,3-d]pyrimidin-4-yl]-3-azabicyclo[3.2.1]octan-6-ol] | 41.6 nM | 35.3 nM | 10.8 nM |  |
| C#Cc1c(F)ccc2cc(O)cc(-c3ncc4c(N5CCC[C@@H](CC#N)C5)nc(OC[C@@]56CCCN5C[C@H](F)C6)nc4c3F)c12 [Example 15, {(3S)-1-[7-(8-ethynyl-7-fluoro-3-hydroxynaphthalen-1-yl)-8-fluoro-2-{[(2R,7aS)-2-fluorotetrahydro-1H-pyrrolizin-7a(5H)-yl]methoxy}pyrido[4,3-d]pyrimidin-4-yl]piperidin-3-yl}acetonitrile] | 493 nM | 871 nM | 121 nM |  |
| Oc1cc(-c2ncc3c(N4C[C@@H]5C[C@H](C4)[C@H](O)C5)nc(OC[C@@]45CCCN4C[C@H](F)C5)nc3c2F)c2c(Cl)cccc2c1 [Example 20, (1R,5R,6R)-3-[7-(8-chloro-3-hydroxynaphthalen-1-yl)-8-fluoro-2-{[(2R,7aS)-2-fluorotetrahydro-1H-pyrrolizin-7a(5H)-yl]methoxy}pyrido[4,3-d]pyrimidin-4-yl]-3-azabicyclo[3.2.1]octan-6-ol] | 142 nM | 164 nM | 45.2 nM |  |
| C#Cc1c(F)ccc2cc(O)cc(-c3nc4c5c(nc(OC[C@@]67CCCN6C[C@H](F)C7)nc5c3F)N3CCCC[C@H]3CO4)c12 [Example 23, 5-ethynyl-6-fluoro-4-[(8aS)-4-fluoro-2-{[(2R,7aS)-2-fluorotetrahydro-1H-pyrrolizin-7a(5H)-yl]methoxy}-8,8a,9,10,11,12-hexahydro-7-oxa-1,3,6,12a-tetraazabenzo[4,5]cyclohepta[1,2,3-de]naphthalen-5-yl]naphthalen-2-ol] | 74 nM | 46 nM | 1.2 nM |  |
| C#Cc1c(F)c(F)cc2cc(O)cc(-c3nc4c5c(nc(OC[C@@]67CCCN6C[C@H](F)C7)nc5c3F)N3CCCC[C@H]3CO4)c12 [Example 32, 5-ethynyl-6,7-difluoro-4-[(8aS)-4-fluoro-2-{[(2R,7aS)-2-fluorotetrahydro-1H-pyrrolizin-7a(5H)-yl]methoxy}-8,8a,9,10,11,12-hexahydro-7-oxa-1,3,6,12a-tetraazabenzo[4,5]cyclohepta[1,2,3-de]naphthalen-5-yl]naphthalen-2-ol] |  |  | 2.1 nM | IC50 [1]: 48 nM; IC50 [2]: 45 nM |
| C#Cc1c(F)c(F)cc2cc(O)cc(-c3nc4c5c(nc(OC[C@@]67CCCN6C[C@H](F)C7)nc5c3F)N3CCCC[C@H]3CO4)c12 [Example 33, 5-ethynyl-6,7-difluoro-4-[(8aS)-4-fluoro-2-{[(2R,7aS)-2-fluorotetrahydro-1H-pyrrolizin-7a(5H)-yl]methoxy}-8,8a,9,10,11,12-hexahydro-7-oxa-1,3,6,12a-tetraazabenzo[4,5]cyclohepta[1,2,3-de]naphthalen-5-yl]naphthalen-2-ol] |  |  |  | Kd [4]: 0.119 nM; KRasGTPgS G12D SPR t1/2 [4]: 9.9 h; IC50 [1]: 3.9 nM; IC50 [2]: 6.6 nM; Kd [5]: 0.205 nM; KRasGTPgS G12C SPR t1/2 [5]: 17.6 h; IC50 [3]: 1.1 nM; Kd [6]: 0.172 nM; KRasGTPgS G12V SPR t1/2 [6]: 12.7 h; Kd [7]: 0.168 nM; KRasGTPgS SPR t1/2 [7]: 12.7 h |
| C=C1CN2CCC[C@@]2(COc2nc3c4c(nc(-c5cc(O)cc6ccc(F)c(CC)c56)c(F)c4n2)OC[C@@H]2COCCCN32)C1 [Example 35, 5-ethyl-6-fluoro-4-[(8aS)-4-fluoro-2-{[(7aS)-2-methylidenetetrahydro-1H-pyrrolizin-7a(5H)-yl]methoxy}-8a, 9,12,13-tetrahydro-8H,11H-7,10-dioxa-1,3,6,13a-tetraazanaphtho[1,8-ab]heptalen-5-yl]naphthalen-2-ol] | 2.3 nM | 3.8 nM | < 0.7 nM | Kd [4]: 0.092 nM; KRasGTPgS G12D SPR t1/2 [4]: 11.3 h; Kd [8]: 0.048 nM; Kd [5]: 0.181 nM; KRasGTPgS G12C SPR t1/2 [5]: 17.8 h; Kd [9]: 0.011 nM; Kd [10]: 0.009 nM; Kd [11]: 0.007 nM; Kd [6]: 0.209 nM; KRasGTPgS G12V SPR t1/2 [6]: 10.3 h; Kd [7]: 0.184 nM; KRasGTPgS SPR t1/2 [7]: 12.4 h |
